ChEMBL document CHEMBL5291721, “A preclinical secondary pharmacology resource illuminates target-adverse drug reaction associations of marketed drugs” (Nat Commun, 2023)

Key:
Adenosine receptor A1 = target: T1, Adenosine receptor A1 (Homo sapiens, UniProt P30542)
T1 sequence (P30542 whole entry): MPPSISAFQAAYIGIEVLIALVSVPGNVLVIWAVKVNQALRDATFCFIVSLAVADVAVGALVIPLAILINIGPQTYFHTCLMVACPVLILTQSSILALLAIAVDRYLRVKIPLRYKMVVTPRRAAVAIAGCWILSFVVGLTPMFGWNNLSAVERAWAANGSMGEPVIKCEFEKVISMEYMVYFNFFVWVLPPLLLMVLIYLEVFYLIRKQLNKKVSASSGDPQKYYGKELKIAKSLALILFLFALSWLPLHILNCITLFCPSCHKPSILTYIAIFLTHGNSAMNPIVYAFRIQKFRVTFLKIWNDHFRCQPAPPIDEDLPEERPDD

[1] = target: Beta-2 adrenergic receptor (Homo sapiens, UniProt P07550)
Beta-2 adrenergic receptor, sequence (P07550 whole entry): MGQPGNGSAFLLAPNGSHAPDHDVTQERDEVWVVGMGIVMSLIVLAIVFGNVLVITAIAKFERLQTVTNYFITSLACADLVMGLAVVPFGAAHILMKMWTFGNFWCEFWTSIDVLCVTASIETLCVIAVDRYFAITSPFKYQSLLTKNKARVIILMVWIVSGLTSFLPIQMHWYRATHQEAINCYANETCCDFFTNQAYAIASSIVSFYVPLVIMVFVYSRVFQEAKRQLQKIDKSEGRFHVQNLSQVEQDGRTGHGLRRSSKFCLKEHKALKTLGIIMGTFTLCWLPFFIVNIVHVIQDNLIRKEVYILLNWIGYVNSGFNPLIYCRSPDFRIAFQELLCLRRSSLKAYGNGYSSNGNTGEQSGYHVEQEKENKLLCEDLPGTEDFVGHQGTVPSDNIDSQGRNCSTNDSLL

Vasopressin V1a receptor = Vasopressin V1a receptor (Homo sapiens, UniProt P37288)
Vasopressin V1a receptor, sequence (P37288 whole entry): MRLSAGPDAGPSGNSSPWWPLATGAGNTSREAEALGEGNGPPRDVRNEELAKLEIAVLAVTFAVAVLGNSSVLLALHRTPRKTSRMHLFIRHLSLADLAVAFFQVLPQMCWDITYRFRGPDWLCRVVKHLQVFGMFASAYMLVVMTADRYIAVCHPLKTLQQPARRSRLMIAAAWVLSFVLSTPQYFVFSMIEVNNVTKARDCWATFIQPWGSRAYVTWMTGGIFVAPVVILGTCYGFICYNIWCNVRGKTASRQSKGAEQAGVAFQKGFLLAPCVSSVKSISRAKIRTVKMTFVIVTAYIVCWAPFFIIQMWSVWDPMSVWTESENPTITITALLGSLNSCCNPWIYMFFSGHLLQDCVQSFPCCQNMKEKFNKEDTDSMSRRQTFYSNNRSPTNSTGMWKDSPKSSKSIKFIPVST

Cannabinoid receptor 1 = Cannabinoid receptor 1 (Homo sapiens, UniProt P21554)
Cannabinoid receptor 1, sequence (P21554 whole entry): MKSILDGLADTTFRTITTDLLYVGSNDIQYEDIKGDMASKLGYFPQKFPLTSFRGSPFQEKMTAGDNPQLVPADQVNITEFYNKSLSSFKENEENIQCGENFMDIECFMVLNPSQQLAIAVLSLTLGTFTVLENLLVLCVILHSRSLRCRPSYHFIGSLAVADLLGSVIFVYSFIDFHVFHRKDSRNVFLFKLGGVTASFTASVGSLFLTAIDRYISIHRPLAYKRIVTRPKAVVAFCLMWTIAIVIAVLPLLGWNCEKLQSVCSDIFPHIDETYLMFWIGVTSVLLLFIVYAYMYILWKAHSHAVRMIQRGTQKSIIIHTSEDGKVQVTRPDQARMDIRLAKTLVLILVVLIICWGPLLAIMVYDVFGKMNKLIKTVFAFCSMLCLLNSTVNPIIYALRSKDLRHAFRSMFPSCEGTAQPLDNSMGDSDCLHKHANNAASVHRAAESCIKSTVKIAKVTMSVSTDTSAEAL

Melanocortin receptor 4 = Melanocortin receptor 4 (Homo sapiens, UniProt P32245)
Melanocortin receptor 4, sequence (P32245 whole entry): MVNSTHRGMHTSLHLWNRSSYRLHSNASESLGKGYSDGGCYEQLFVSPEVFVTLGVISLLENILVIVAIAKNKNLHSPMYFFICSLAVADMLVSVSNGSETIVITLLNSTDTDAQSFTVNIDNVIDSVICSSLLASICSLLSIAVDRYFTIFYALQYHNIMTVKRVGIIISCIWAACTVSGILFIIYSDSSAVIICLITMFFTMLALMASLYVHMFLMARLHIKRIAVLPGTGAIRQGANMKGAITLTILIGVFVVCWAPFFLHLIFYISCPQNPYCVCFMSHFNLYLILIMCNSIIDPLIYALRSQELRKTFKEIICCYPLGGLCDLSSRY

Motilin receptor = Motilin receptor (Homo sapiens, UniProt O43193)
Motilin receptor, sequence (O43193 whole entry): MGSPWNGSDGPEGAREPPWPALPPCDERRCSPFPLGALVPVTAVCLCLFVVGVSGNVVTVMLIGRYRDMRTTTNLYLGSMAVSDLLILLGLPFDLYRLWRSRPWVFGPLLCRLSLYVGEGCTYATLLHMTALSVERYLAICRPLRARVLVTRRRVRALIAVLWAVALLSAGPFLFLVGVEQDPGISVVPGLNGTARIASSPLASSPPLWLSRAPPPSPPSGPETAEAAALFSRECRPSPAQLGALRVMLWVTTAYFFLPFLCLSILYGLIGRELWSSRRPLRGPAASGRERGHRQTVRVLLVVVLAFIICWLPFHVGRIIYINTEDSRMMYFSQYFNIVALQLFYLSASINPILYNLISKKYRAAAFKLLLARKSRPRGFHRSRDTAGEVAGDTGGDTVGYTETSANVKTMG

[2] = target: Sodium-dependent noradrenaline transporter (Homo sapiens, UniProt P23975)
Sodium-dependent noradrenaline transporter, sequence (P23975 whole entry): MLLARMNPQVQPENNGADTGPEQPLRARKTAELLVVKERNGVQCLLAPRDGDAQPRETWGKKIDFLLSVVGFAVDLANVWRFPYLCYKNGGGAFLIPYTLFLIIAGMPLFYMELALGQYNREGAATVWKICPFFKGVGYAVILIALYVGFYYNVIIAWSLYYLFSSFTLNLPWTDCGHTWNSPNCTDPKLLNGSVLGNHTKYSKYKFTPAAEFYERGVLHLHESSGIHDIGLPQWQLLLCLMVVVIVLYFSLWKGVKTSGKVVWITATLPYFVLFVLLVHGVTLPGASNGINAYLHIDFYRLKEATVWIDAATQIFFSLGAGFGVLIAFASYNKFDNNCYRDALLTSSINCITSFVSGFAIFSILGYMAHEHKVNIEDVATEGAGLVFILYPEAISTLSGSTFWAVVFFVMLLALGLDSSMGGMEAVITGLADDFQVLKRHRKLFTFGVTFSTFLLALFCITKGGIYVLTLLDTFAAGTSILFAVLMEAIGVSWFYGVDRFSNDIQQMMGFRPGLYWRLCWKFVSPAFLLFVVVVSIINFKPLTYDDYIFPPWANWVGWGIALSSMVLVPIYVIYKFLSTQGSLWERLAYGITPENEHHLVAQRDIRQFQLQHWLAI

Mu-type opioid receptor = Mu-type opioid receptor (Homo sapiens, UniProt P35372)
Mu-type opioid receptor, sequence (P35372 whole entry): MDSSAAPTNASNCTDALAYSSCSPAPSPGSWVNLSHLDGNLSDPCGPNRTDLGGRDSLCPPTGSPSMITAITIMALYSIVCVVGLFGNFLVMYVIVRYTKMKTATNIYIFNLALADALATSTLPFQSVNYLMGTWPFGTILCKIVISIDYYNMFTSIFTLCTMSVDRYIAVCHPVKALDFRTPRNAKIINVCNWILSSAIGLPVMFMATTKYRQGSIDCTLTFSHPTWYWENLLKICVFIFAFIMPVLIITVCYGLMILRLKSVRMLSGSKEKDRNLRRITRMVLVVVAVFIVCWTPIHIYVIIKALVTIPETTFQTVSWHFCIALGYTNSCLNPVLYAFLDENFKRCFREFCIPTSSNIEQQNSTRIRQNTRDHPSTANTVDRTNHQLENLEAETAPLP

[3] = target: T2, 5-hydroxytryptamine receptor 1A (Homo sapiens, UniProt P08908)
T2 sequence (P08908 whole entry): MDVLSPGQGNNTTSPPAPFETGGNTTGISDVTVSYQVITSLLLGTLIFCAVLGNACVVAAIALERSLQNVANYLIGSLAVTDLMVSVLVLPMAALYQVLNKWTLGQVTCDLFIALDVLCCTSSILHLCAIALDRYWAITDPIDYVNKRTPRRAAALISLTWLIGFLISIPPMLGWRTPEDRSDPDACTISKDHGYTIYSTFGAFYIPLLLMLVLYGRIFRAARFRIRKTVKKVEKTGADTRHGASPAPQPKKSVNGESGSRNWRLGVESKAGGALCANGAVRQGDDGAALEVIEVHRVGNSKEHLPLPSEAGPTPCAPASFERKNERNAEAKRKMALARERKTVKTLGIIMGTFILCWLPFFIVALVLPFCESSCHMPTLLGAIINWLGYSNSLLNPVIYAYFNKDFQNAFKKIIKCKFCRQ

[4] = target: T3, Alpha-2A adrenergic receptor (Homo sapiens, UniProt P08913); format: functional, cell-based
T3 sequence (P08913 whole entry): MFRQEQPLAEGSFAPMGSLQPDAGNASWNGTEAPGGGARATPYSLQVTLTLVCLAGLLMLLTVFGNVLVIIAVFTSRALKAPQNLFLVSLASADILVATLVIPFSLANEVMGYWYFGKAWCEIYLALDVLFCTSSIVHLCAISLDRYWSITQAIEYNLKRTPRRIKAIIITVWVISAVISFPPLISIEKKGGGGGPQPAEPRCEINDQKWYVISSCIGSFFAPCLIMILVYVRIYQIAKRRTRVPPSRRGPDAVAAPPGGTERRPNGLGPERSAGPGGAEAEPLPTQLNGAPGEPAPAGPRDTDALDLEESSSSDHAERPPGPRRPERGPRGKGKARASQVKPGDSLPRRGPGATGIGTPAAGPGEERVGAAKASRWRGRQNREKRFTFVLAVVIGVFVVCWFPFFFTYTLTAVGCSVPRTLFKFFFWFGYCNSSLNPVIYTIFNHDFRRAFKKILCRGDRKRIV

Estrogen receptor = target: T4, Estrogen receptor (Homo sapiens, UniProt P03372)
T4 sequence (P03372 whole entry): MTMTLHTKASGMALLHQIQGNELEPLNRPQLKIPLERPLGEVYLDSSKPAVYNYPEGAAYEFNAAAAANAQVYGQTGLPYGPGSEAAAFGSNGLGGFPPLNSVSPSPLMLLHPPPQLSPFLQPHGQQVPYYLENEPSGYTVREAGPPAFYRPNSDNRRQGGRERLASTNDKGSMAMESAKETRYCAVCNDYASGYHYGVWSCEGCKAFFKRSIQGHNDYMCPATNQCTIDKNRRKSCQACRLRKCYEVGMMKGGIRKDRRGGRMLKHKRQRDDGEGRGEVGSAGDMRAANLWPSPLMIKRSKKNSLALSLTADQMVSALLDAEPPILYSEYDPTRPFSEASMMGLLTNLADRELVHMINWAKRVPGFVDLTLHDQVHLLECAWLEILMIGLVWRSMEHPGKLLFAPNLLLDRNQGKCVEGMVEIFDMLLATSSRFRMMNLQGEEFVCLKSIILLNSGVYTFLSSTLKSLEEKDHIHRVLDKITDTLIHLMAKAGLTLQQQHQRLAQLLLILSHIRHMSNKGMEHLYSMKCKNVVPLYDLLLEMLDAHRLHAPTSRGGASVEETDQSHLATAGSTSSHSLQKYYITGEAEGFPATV

[5] = target: T5, Alpha-1A adrenergic receptor (Homo sapiens, UniProt P35348); format: functional, cell-based
T5 sequence (P35348 whole entry): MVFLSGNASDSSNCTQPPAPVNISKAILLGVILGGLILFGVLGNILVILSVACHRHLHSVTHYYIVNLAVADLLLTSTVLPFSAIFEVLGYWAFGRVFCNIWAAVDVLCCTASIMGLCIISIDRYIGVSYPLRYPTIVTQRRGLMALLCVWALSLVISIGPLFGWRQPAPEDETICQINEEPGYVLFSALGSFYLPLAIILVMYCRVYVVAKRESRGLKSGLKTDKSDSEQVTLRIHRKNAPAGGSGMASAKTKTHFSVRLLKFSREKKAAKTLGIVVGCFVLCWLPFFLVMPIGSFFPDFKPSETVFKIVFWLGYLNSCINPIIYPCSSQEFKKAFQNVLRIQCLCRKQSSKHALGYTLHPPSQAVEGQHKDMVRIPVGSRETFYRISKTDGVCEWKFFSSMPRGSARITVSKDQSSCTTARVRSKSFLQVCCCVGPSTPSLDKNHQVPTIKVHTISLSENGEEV

[6] = target: T5, Alpha-1A adrenergic receptor
Also: assay procedure not described here.

Row | SMILES | AC50 (Adenosine receptor A1) | AC50 [1] | AC50 (Vasopressin V1a receptor) | AC50 (Cannabinoid receptor 1) | AC50 (Melanocortin receptor 4) | AC50 (Motilin receptor) | AC50 [2] | AC50 (Mu-type opioid receptor) | AC50 [3] | AC50 [4] | AC50 (Estrogen receptor) | AC50 [5] | AC50 [6]
1 | N#Cc1ccc([C@H]2CCc3cncn32)c(F)c1 [OSILODROSTAT] | > 10 µM | > 10 µM | > 10 µM | > 10 µM | > 10 µM | > 10 µM | > 10 µM | > 10 µM | > 10 µM |  |  |  | 
2 | OC(CNCC(O)C1CCc2cc(F)ccc2O1)C1CCc2cc(F)ccc2O1 (configuration not stated) [NEBIVOLOL] | > 30 µM | 0.07 µM | > 30 µM |  |  | 21 µM | 1.5 µM |  | 0.14 µM | 8.1 µM | > 30 µM | 3.1 µM | 
3 | COc1ccccc1N1CCN(CCCNc2cc(=O)n(C)c(=O)n2C)CC1 | > 30 µM | 0.8 µM | > 30 µM |  |  | > 30 µM | > 30 µM |  | 0.492 µM | 11 µM | > 30 µM | 0.57 µM | 0.0043 µM
4 | CC[C@@H]1C(=O)OC[C@@H]1Cc1cncn1C [PILOCARPINE] | > 30 µM | > 10 µM | > 30 µM | 16.1 µM | > 30 µM | > 10 µM | > 30 µM | > 30 µM | > 10 µM | > 10 µM | > 30 µM | > 30 µM | > 10 µM
5 | CC(=O)O[C@H]1CC[C@@]2(C)C(=CC[C@@H]3[C@@H]2CC[C@]2(C)C(c4cccnc4)=CC[C@@H]32)C1 [ABIRATERONE ACETATE] | > 30 µM | > 10 µM | > 30 µM |  |  | > 30 µM | > 30 µM | > 30 µM | > 10 µM | > 30 µM |  | > 30 µM | > 10 µM
6 | CCCCc1ncc(/C=C(\Cc2cccs2)C(=O)O)n1Cc1ccc(C(=O)O)cc1 [EPROSARTAN] | > 10 µM | > 10 µM | > 30 µM | > 10 µM | > 10 µM | > 10 µM | > 30 µM | > 10 µM | > 10 µM | > 10 µM |  | > 30 µM | > 10 µM
7 | COc1ccccc1OCCNCC(O)c1ccc(C)c(S(N)(=O)=O)c1 (configuration not stated) [AMOSULALOL] | > 30 µM | 0.1 µM | > 30 µM |  |  | > 30 µM | > 30 µM |  | 0.052 µM | 9.1 µM | > 30 µM | 0.24 µM | 0.3 µM
8 | CN1C(=O)C(O)N=C(c2ccccc2)c2cc(Cl)ccc21 (configuration not stated) [TEMAZEPAM] | > 30 µM | > 10 µM | > 10 µM | > 10 µM | > 30 µM | > 10 µM | > 10 µM | > 30 µM | > 10 µM | > 10 µM | > 30 µM |  | > 10 µM
9 | CCc1c(Cl)c(O)c(Cl)c(O)c1C(=O)O[C@H]1[C@H](O)[C@H](OC)[C@H](OC/C2=C\C=C\C[C@H](O)/C(C)=C/[C@H](CC)[C@@H](O[C@@H]3OC(C)(C)[C@@H](OC(=O)C(C)C)[C@H](O)[C@@H]3O)/C(C)=C/C(C)=C/C[C@@H]([C@@H](C)O)OC2=O)O[C@@H]1C [FIDAXOMICIN] | > 30 µM | > 10 µM | > 10 µM | > 10 µM | > 30 µM | > 10 µM | > 30 µM | > 10 µM | > 10 µM |  | > 30 µM |  | 
10 | CC(C)(C)c1cc(C(C)(C)C)c(NC(=O)c2c[nH]c3ccccc3c2=O)cc1O [IVACAFTOR] | > 30 µM | > 10 µM | > 30 µM | > 10 µM | 25.6 µM | > 10 µM | 6.5 µM | > 30 µM | > 10 µM | > 10 µM | > 30 µM |  | > 10 µM
11 | COc1ccc2c3c1O[C@H]1[C@@H](O)C=C[C@H]4[C@@H](C2)N(C)CC[C@@]341 [CODEINE] | > 30 µM | > 10 µM | > 30 µM | > 10 µM | > 30 µM | > 10 µM | > 30 µM |  | > 10 µM | > 10 µM | > 30 µM | > 30 µM | > 10 µM
12 | CC(Oc1c(Cl)cccc1Cl)C1=NCCN1 (configuration not stated) [LOFEXIDINE] | > 30 µM | > 30 µM | > 30 µM | > 30 µM |  | > 30 µM | > 30 µM |  | 0.29 µM |  |  |  | 0.803 µM
13 | CN1CCC(=C2c3ccccc3CCc3sccc32)CC1 [PIZOTYLINE] | > 30 µM | 5.8 µM | > 30 µM | 1.66 µM | > 30 µM | > 10 µM | 1.1 µM | > 10 µM | 0.338 µM | 3.97 µM | > 30 µM | 3.32 µM | 
14 | CCCc1nc(C(C)(C)O)c(C(=O)OCc2oc(=O)oc2C)n1Cc1ccc(-c2ccccc2-c2nnn[nH]2)cc1 [OLMESARTAN MEDOXOMIL] | > 50 µM | > 10 µM | > 30 µM |  | > 50 µM | > 10 µM | > 30 µM | > 10 µM | > 10 µM | > 10 µM |  | > 30 µM | > 10 µM
15 | CC(C)Cn1cnc2c(N)nc3ccccc3c21 [IMIQUIMOD] | > 10 µM | > 10 µM |  | > 10 µM | > 10 µM | > 10 µM | > 30 µM | > 30 µM | > 10 µM | > 10 µM | > 10 µM |  | 5.67 µM
16 | CCCN(CCC)C(=O)C(CCC(=O)O)NC(=O)c1ccccc1 (configuration not stated) [PROGLUMIDE] | > 30 µM | > 30 µM | > 30 µM | > 10 µM | > 30 µM | > 30 µM | > 30 µM | > 30 µM | > 10 µM | > 10 µM |  |  | > 30 µM
